# Measurements taken from patent publication US5747505A, “Heterocyclic aryl-, alkyl- and cycloalkylacetamides” (Bayer Aktiengesellschaft, priority 1995, dated 1998).
# System: release of ApoB-100-associated lipoproteins from HepG2 cells
# Assay: Inhibition of the release of ApoB-100-associated lipoproteins from cultivated liver cells (HepG2), immunoassay for human LDL
# Assay type: cell-based
# Conditions: substance concentration at which light absorption (450 nm) is inhibited by 50% vs solvent control
# Experimental: 1. Inhibition of the release of ApoB-100-associated lipopnoteins
# The test for detecting the inhibition of the release of ApoB-100-associatedlipoproteins-from liver cells was carried out in vitro using cultivated liver cells, preferably using cells of the human line HepG2. These cells are grown under standard conditions in medium for the culture of eukaryotic cells, preferably in RPMI 1640 with 10% foetal calf serum. HepG2 cells synthesize and secrete into the culture supernatant ApoB-100-associated lipoprotein particles which in principle are constructed similarly to the VLDL and LDL particles which are to be found in the plasma.
# These particles can be detected using an immunoassay for human LDL. This immunoassay is carried out using antibodies which have been induced against human LDL in the rabbit under standard conditions. The anti-LDL antibodies (rabbit anti-LDL Ab) were purified by affinity chromatography on an immunosorbent using human LDL. These purified rabbit anti-LDL Ab are adsorbed on the surface of plastic. Expediently, this adsorption takes place on the plastic surface of microtiter plates having 96 wells, preferably on MaxiSorp plates. If ApoB-100-associated particles are present in the supernatant of Hep-G2 cells, these can bind to the insolubilized rabbit anti-LDL Ab and an immune complex is formed which is bound to the plastic surface. Non-bound proteins are removed by washing. The immune complex on the plastic surface is detected using monoclonal antibodies which have been induced against human LDL and purified according to standard conditions. These antibodies were conjugated with the enzyme peroxidase. Peroxidase converts the colourless substrate TMB into a coloured product in the presence of H2 O2. After acidification of the reaction mixture with H2 SO4, the specific light absorption at 450 nm is determined, which is a measure of the amount of ApoB-100-associated particles which have been secreted into the culture supernatant by the HepG2 cells.
# The IC50 value indicates at which substance concentration the light absorption is inhibited by 50% in comparison with the control (solvent control without substance).
row,IC50,Compound
1,195 nM,"O=C(N[C@@H](CO)c1ccccc1)C(c1ccc(OCc2ccc3ccccc3n2)s1)C1CCCCCC1 (stereo partly drawn) [Example 1, 2-Cycloheptyl-N-(2-hydroxy-1(R)-phenylethyl)-2-[5-(quinoline-2-ylmethoxy)thiophen-2-yl]acetamide]"
2,> 2000 nM,O=C(NCc1ccccc1)C(c1ccccc1)N1CCC(OCc2ccc3ccccc3n2)CC1 (stereo not shown) [Example 2]
3,71 nM,O=C(N[C@@H](CO)c1ccccc1)C(c1ccc(OCc2ccccc2Cl)cn1)C1CCCCCC1 (stereo partly shown) [Example 3]
4,11 nM,O=C(NCc1ccccc1)C(c1ccc(OCc2ccccc2Cl)cn1)C1CCCCCC1 (stereo not shown) [Example 4]
5,622 nM,O=C(N[C@@H](CO)c1ccccc1)C(c1ccc(OCc2ccc3ccccc3n2)cn1)C1CCCC1 (stereo partly shown) [Example 5]
6,255 nM,O=C(N[C@@H](CO)c1ccccc1)C(c1ccc(OCc2ccc3ccccc3n2)cn1)C1CCCCCC1 (stereo partly shown) [Example 6]
7,1880 nM,O=C(N[C@@H](CO)c1ccccc1)C(c1ccc2cc(OCc3ccc4ccccc4n3)ccc2c1)C1CCCC1 (stereo partly shown) [Example 8]
8,> 2000 nM,O=C(NCC1CCCCC1)C(c1ccc2cc(OCc3ccc4ccccc4n3)ccc2c1)C1CCCC1 (stereo not shown) [Example 9]
9,> 2000 nM,COc1cc(CNC(=O)C(c2ccc3cc(OCc4ccc5ccccc5n4)ccc3c2)C2CCCC2)ccc1O (stereo not shown) [Example 10]
10,> 2000 nM,O=C(N[C@H](CO)c1ccccc1)C(c1ccc2cc(OCc3ccc4ccccc4n3)ccc2c1)C1CCCC1 (stereo partly shown) [Example 11]
11,> 2000 nM,Cc1ccc(CNC(=O)C(c2ccc3cc(OCc4ccc5ccccc5n4)ccc3c2)C2CCCC2)cc1 (stereo not shown) [Example 12]
12,235 nM,O=C(N[C@@H](CO)c1ccccc1)[C@H](c1ccc(OCc2ccc3ccccc3n2)cn1)C1CCCCCC1 [Example 13]
13,235 nM,O=C(N[C@@H](CO)c1ccccc1)[C@@H](c1ccc(OCc2ccc3ccccc3n2)cn1)C1CCCCCC1 [Example 14]
